# Read-outs that look alike come from different tables or passages of the source.
# Experiments:
# κ opioid receptor = κ opioid receptor (Homo sapiens, UniProt P41145); experiment: κ opioid competitive radioligand binding; settings: for Opioid receptor displacement (%) κ: Tested at 10 µM
# δ opioid receptor [1] = biological target: T1, δ opioid receptor (Homo sapiens, UniProt P41143); experiment: δ opioid competitive radioligand binding; settings: for Opioid receptor displacement (%) δ: Tested at 10 µM
# μ opioid receptor [2] = biological target: T2, μ opioid receptor (Homo sapiens, UniProt P35372); experiment: μ opioid competitive radioligand binding; settings: for Opioid receptor displacement (%) μ: Tested at 10 µM
# [3] = system: Adult male Swiss Webster mice; experiment: Mouse tetrad assay; settings: for Catalepsy Latency / Hotplate Latency (% MPE) / Tail-Flick Latency (% MPE) / Rectal temperature (°C): 30 min post-injection; for Rectal temperature (°C): change in core body temperature
# δ opioid receptor [4] = biological target: T1, δ opioid receptor; experiment: In vitro GTPγS functional assay, δ-opioid; format: biochemical
# μ opioid receptor [5] = biological target: T2, μ opioid receptor; experiment: In vitro GTPγS functional assay, μ-opioid; format: biochemical
# [6] = ip, dose not stated or 'lower doses' (10–100 mg/kg tested)
compound,measurement,setting,value
O-methylcoclaurine [Compound 5],Ki,κ opioid receptor; read-out: κ Ki (µM) ± SEM,3.5 ± 0.3 µM
same,Ki,δ opioid receptor [1]; read-out: δ Ki (µM) ± SEM,22.6 ± 3.9 µM
same,Ki,μ opioid receptor [2]; read-out: μ Ki (µM) ± SEM,2 ± 0.3 µM
"COc1cc2c3c(c1OC)-c1ccccc1C[C@H]3N(C)CC2 [Compound 1, nuciferine]",Catalepsy Latency,[3]; 10 mg/kg ip,3.875 ± 2.32 s
same,Hotplate Latency (% MPE),[3]; 10 mg/kg ip,6.99 ± 2.61 % MPE
same,Tail-Flick Latency (% MPE),[3]; 10 mg/kg ip,11.69 ± 6.074 % MPE
same,Rectal temperature (°C),[3]; 10 mg/kg ip,−0.49 ± 0.31 °C
same,Catalepsy Latency,[3]; 30 mg/kg ip,1.750 ± 0.62 s
same,Hotplate Latency (% MPE),[3]; 30 mg/kg ip,3.69 ± 3.01 % MPE
same,Tail-Flick Latency (% MPE),[3]; 30 mg/kg ip,18.43 ± 10.50 % MPE
same,Rectal temperature (°C),[3]; 30 mg/kg ip,−0.91 ± 0.31 °C
same,Catalepsy Latency,[3]; 75 mg/kg ip,3.500 ± 1.07 s
same,Hotplate Latency (% MPE),[3]; 75 mg/kg ip,0.68 ± 2.73 % MPE
same,Tail-Flick Latency (% MPE),[3]; 75 mg/kg ip,19.45 ± 6.16 % MPE
same,Rectal temperature (°C),[3]; 75 mg/kg ip,−1.68 ± 0.38 °C
same,Catalepsy Latency,[3]; 100 mg/kg ip,1.500 ± 0.27 s
same,Hotplate Latency (% MPE),[3]; 100 mg/kg ip,21.78 ± 7.16 % MPE
same,Tail-Flick Latency (% MPE),[3]; 100 mg/kg ip,14.14 ± 15.52 % MPE
same,Rectal temperature (°C),[3]; 100 mg/kg ip,−3.8 ± 0.57 °C
same,Behavioral effects in tetrad assay (in words),[3]; 100 mg/kg/ip,"only decreased locomotion and hypothermia at the same dose, but failed to display catalepsy and antinociceptive activity"
same,Behavioral effects in tetrad assay (in words),[3]; [6],failed to show any cataleptic effect or toxicity in the form of tremors and convulsions
"COc1ccc(C[C@@H]2c3cc(OC)c(OC)cc3CCN2C)cc1 [Compound 12, 4´-O-methylarmepavine]",Opioid receptor displacement (%) κ,κ opioid receptor,did not show any significant displacements
same,Opioid receptor displacement (%) δ,δ opioid receptor [1],did not show any significant displacements
same,Opioid receptor displacement (%) μ,μ opioid receptor [2],did not show any significant displacements
"COc1cc2c(cc1OC)C(Cc1ccc(O)cc1)N(C)CC2 (stereo not shown) [Compound 4, armepavine]",Ki,κ opioid receptor; read-out: κ Ki (µM) ± SEM,13 ± 1.4 µM
same,Ki,δ opioid receptor [1]; read-out: δ Ki (µM) ± SEM,23.8 ± 3.7 µM
same,Ki,μ opioid receptor [2]; read-out: μ Ki (µM) ± SEM,2.7 ± 0.8 µM
"COc1ccc(CC2c3cc(OC)c(OC)cc3CCN2C)cc1 (stereo not shown) [Compound 13, 4´,7-di-O-methylarmepavine]",Opioid receptor displacement (%) κ,κ opioid receptor,did not show any significant displacements
same,Opioid receptor displacement (%) δ,δ opioid receptor [1],did not show any significant displacements
same,Opioid receptor displacement (%) μ,μ opioid receptor [2],did not show any significant displacements
"Oc1ccc(CC2NCCc3cc(O)c(O)cc32)cc1 (racemic) [Compound 11, (±)-higenamine]",Opioid receptor displacement (%) κ,κ opioid receptor,did not show any significant displacements
same,Opioid receptor displacement (%) δ,δ opioid receptor [1],did not show any significant displacements
same,Opioid receptor displacement (%) μ,μ opioid receptor [2],did not show any significant displacements
"COc1cc2c(cc1O)[C@@H](Cc1ccc(O)cc1)N(C)CC2 [Compound 6, N-methylcoclaurine]",Ki,κ opioid receptor; read-out: κ Ki (µM) ± SEM,0.9 ± 0.1 µM
same,Ki,δ opioid receptor [1]; read-out: δ Ki (µM) ± SEM,20.1 ± 3.1 µM
same,Ki,μ opioid receptor [2]; read-out: μ Ki (µM) ± SEM,4 ± 0.5 µM
"CCCCCCCCCCCCCCCC(=O)O [Palmitic acid (PA), palmitic acid]",Ki,δ opioid receptor [1],> 21.1 µM
"CCCCC/C=C\C/C=C\CCCCCCCC(=O)O [Linoleic acid (LA), linoleic acid]",Ki,δ opioid receptor [1],14.5 ± 2.4 µM
"COc1ccc(C[C@@H]2c3cc(Oc4cc(C[C@@H]5c6cc(OC)c(OC)cc6CCN5C)ccc4O)c(OC)cc3CCN2C)cc1 [Compound 10, neferine]",Ki,κ opioid receptor,3.3 ± 0.4 µM
same,EC50,δ opioid receptor [4],7.9 ± 2.1 µM
same,Ki,δ opioid receptor [1],0.7 ± 0.1 µM
same,EC50,μ opioid receptor [5],> 21 µM
same,Functional character at μ opioid receptor by GTPγS assay,μ opioid receptor [5]; in words,weak μ partial agonist
same,Ki,μ opioid receptor [2],1.8 ± 0.2 µM
"COc1cc2c(cc1O)C(Cc1ccc(O)cc1)NCC2 (stereo not shown) [Compound 7, coclaurine]",Ki,κ opioid receptor,2.2 ± 0.2 µM
same,Ki,δ opioid receptor [1],21.1 ± 2 µM
same,Catalepsy Latency,[3]; 10 mg/kg ip,1.25 ± 0.25 s
same,Hotplate Latency (% MPE),[3]; 10 mg/kg ip,10.15 ± 4.45 % MPE
same,Tail-Flick Latency (% MPE),[3]; 10 mg/kg ip,16.57 ± 7.23 % MPE
same,Rectal temperature (°C),[3]; 10 mg/kg ip,0.17 ± 0.08 °C
same,Catalepsy Latency,[3]; 30 mg/kg ip,2.37 ± 0.59 s
same,Hotplate Latency (% MPE),[3]; 30 mg/kg ip,5.46 ± 5.05 % MPE
same,Tail-Flick Latency (% MPE),[3]; 30 mg/kg ip,1.43 ± 6.95 % MPE
same,Rectal temperature (°C),[3]; 30 mg/kg ip,0.1 ± 0.15 °C
same,Catalepsy Latency,[3]; 75 mg/kg ip,1.75 ± 0.41 s
same,Hotplate Latency (% MPE),[3]; 75 mg/kg ip,15.49 ± 3.57 % MPE
same,Tail-Flick Latency (% MPE),[3]; 75 mg/kg ip,13.95 ± 5.01 % MPE
same,Rectal temperature (°C),[3]; 75 mg/kg ip,−0.39 ± 0.05 °C
same,Catalepsy Latency,[3]; 100 mg/kg ip,1.25 ± 0.25 s
same,Hotplate Latency (% MPE),[3]; 100 mg/kg ip,6.08 ± 1.9 % MPE
same,Tail-Flick Latency (% MPE),[3]; 100 mg/kg ip,10.07 ± 3.31 % MPE
same,Rectal temperature (°C),[3]; 100 mg/kg ip,−0.58 ± 0.23 °C
same,Behavioral effects in tetrad assay (in words),[3]; [6],did not influence any significant behavioral effects with the exception of weak locomotor activity
same,Ki,μ opioid receptor [2],5 ± 0.7 µM

# From PMC4636954 (Journal of ethnopharmacology, 2015)
